In PMC5556071, “ATR inhibition facilitates targeting of leukemia dependence on convergent nucleotide biosynthetic pathways” (Nature Communications, 2017):
Several values for one entry are separate records, joined by “and”; a condition that tells them apart may be missing. Identical values can stand only once.

System: CEM cells
Test: Non-targeted LC-MS metabolite profiling: percent [13C6]glucose labeling and relative metabolite levels
Assay type: cell-based, human
Conditions: CEM cells, 12 h following release from G1 arrest, replicates #1-#6
From the text: To further investigate the functions of dCK and ATR at the G1/S transition in CEM cells, a non-targeted liquid chromatography mass spectrometry (LC-MS) assay was used to determine the utilization of labeled [^13C6]glucose and [^13C9,^15N3]deoxycytidine, the main substrates for de novo and salvage nucleotide biosynthesis, respectively. Of the 166 metabolites identified in CEM cells treated with VE-822 and/or dCKi, 105 metabolites found in all four treatment groups contained glucose-derived ^13C atoms. […] These metabolites included intermediates such as rUTP, rCTP and rCDP in the de novo dCTP biosynthesis (Fig. 1d). […] However, several deoxyribonucleotides, including dCTP, were below the limit of detection of the non-targeted LC-MS approach, raising the concern that the sensitivity of this assay is not sufficient to measure the contribution of the salvage pathway or the ratio of de novo and salvage biosynthesis to these pools. To address this problem, a newly developed targeted MS assay was developed (Fig. 1e and Supplementary Fig. 3). In this assay, samples containing either extracted dNTPs or hydrolyzed DNA from labeled cells are separated by LC for detection by a triple quadrupole mass spectrometer using multiple reaction monitoring (LC-MS/MS-MRM). The first (Q1) and third (Q3) quadrupoles function as mass filters, while the second (Q2) quadrupole serves as a collision chamber (Fig. 1e). For instance, to profile the biosynthetic composition of deoxycytidine (dC) derived from hydrolyzed DNA or dCTP, an intact, protonated dC ion is selected in Q1, followed by fragmentation of the glycosidic bond, which releases protonated cytosine in Q2, that is filtered in Q3 and detected to generate an ion chromatogram. The peak areas for the ion chromatograms of salvage [^13C9,^15N3]dC (red trace), de novo [^13C5]dC (black trace, from [^13C6]glucose) and unlabeled dC (gray trace) (Fig. 1e) are used to determine the relative contributions of the de novo and salvage routes both to dCTP pools and to DNA-incorporated dCTP.
Cells were transferred into RPMI-1640 without glucose and supplemented with 10% dialyzed FBS (Gibco) containing the following labeled substrates: precursors for de novo [U-^13C6]glucose (Sigma-Aldrich, 389374) at 11 mM; precursors for purine salvage [U-^13C10,^15N5]dA (Cambridge Isotopes, CIL 3896), [^15N5]dA (Cambridge Isotopes, NLM-3895) and [^15N5]dG (Cambridge Isotopes, NLM-3899) at 5 µM or as indicated; and precursors for pyrimidine salvage: [U-^13C9,^15N3]dC (Silantes, 124603602) and [U-^13C10,^15N2]dT (Cambridge Isotopes, CNLM-3902) at 5 µM and [^15N2]orotate (Cambridge Isotopes, NLM-1048) at indicated concentrations. The cells were incubated for 12 h or as indicated before sample collection and processing. […]
Non-targeted LC-MS metabolic assays. 1 x 10^6 cells were washed with ice-cold 150 mM ammonium acetate twice before adding 1 mL of ice-cold 80% methanol with 10 nM norvaline as an internal standard. After vigorous vortexing, samples were centrifuged at maximum speed, the aqueous layer was transferred to a glass vial and the metabolites were dried under vacuum. Metabolites were resuspended in 50 μL 70% acetonitrile (ACN) and 5 μL of this solution used for the mass spectrometer-based analysis. The analysis was performed on a Q Exactive (Thermo Scientific) in polarity-switching mode with positive voltage 4.0 kV and negative voltage 4.0 kV. The mass spectrometer was coupled to an UltiMate 3000RSLC (Thermo Scientific) UHPLC system. Mobile phase A was 5 mM ammonium acetate (NH4AcO), pH 9.9, B was acetonitrile and the separation achieved on a Luna […] NH2 100 A column (150 × 2.0 mm, Phenomenex). The flow was 200 μL/min, and the gradient ran from 15% A to 95% A in 18 min, followed by an isocratic step for 9 min and re-equilibration for 7 min. Metabolites were detected and quantified as area under the curve based on retention time and accurate mass (≤ 3 p.p.m.) using the TraceFinder 3.1 (Thermo Scientific). Relative amounts of […]

[1] = metabolite Asp (C00049), listed as V
[2] = metabolite Carnitine (C00318), listed as V
[3] = metabolite G3P (KEGG C00118), listed as V
[4] = metabolite G6P-F6P (KEGG C00668), listed as V
[5] = metabolite GABA (KEGG C00334), listed as V
[6] = metabolite GDP (KEGG C00035), listed as V
[7] = metabolite GMP (KEGG C00144), listed as V
[8] = metabolite GSH (KEGG C00051), listed as V
[9] = metabolite GSSG (KEGG C00127), listed as V
[10] = metabolite GTP (KEGG C00044), listed as V
[11] = metabolite Glc (KEGG C00031), listed as V
[12] = metabolite GlcA (KEGG C00257), listed as V
[13] = metabolite GlcN-6P (KEGG C00352), listed as V
[14] = metabolite GlcNAc-6P (KEGG C00357), listed as V

SMILES: CNCc1ccc(-c2cc(-c3nc(-c4ccc(S(=O)(=O)C(C)C)cc4)cnc3N)on2)cc1 [VE-822]
- Relative level, Asn (metabolite Asn (C00152), listed as V): 1.3 and 1.4 (2×) and 0.9 (3×)
- Glucose labeling, Asp [1]: 22.64% and 22.44% and 22.12% and 21.45% and 21.35% and 21.96%
- Relative level, Asp [1]: 1.8 and 1.3 and 1.4 and 1.5 and 0.9 and 1.0
- Glucose labeling, C (metabolite C (D07769), listed as V): 0.35% and 0.24% and 0.32% and 0.34% and 0.00758% and 0.36%
- Relative level, C (metabolite C, listed as V): 1.9 (2×) and 2.0 and 1.8 and 2.3 and 2.5
- Glucose labeling, Carnitine [2]: 0.0372% and 0.00375% and 0.00443% and 0.00282% and 0.06% and 0.00331%
- Relative level, Carnitine [2]: 0.9 and 1.0 (2×) and 0.7 (2×) and 0.8
- Glucose labeling of G3P [3]: 58.87% and 0.0369% (3×) and 100.00% (2×)
- Relative level of G3P [3]: 0.952 and 0.6 (2×) and 0.2 and 0.456
- Glucose labeling of G6P-F6P [4]: 88.15% and 86.27% and 90.17% and 83.23% and 85.62% and 81.44%
- Relative level of G6P-F6P [4]: 4.7 and 2.5 and 3.5 and 1.9 and 1.1 and 1.0
- Glucose labeling of GABA [5]: 0.05% and 0.04% and 0.0737% (4×)
- Relative level of GABA [5]: 0.9 (2×) and 1.0 and 0.4 (2×) and 0.5
- Glucose labeling of GDP [6]: 66.45% and 57.13% and 62.54% and 65.67% and 61.42% and 68.88%
- Relative level of GDP [6]: 2.9 and 0.7 and 1.2 and 1.1 and 0.647 and 0.351
- Glucose labeling of GMP [7]: 67.56% and 73.95% and 70.72% and 64.86% and 56.63% and 63.18%
- Relative level of GMP [7]: 3.6 and 1.9 (2×) and 2.2 and 0.527 and 0.431
- Glucose labeling of GSH [8]: 22.37% and 21.90% and 25.59% and 18.14% and 18.31% and 18.93%
- Relative level of GSH [8]: 1.4 and 1.1 and 0.9 and 0.6 and 0.557 and 0.5
- Glucose labeling of GSSG [9]: 41.97% and 38.91% and 39.41% and 36.66% and 34.27% and 31.20%
- Relative level of GSSG [9]: 1.0 (2×) and 0.9 and 0.7 and 0.553 and 0.533
- Glucose labeling of GTP [10]: 66.00% and 75.98% and 68.76% and 65.13% and 72.51% and 69.15%
- Relative level of GTP [10]: 1.6 and 0.4 (2×) and 0.8 and 0.9 and 0.378
- Glucose labeling of Glc [11]: 85.14% and 89.26% and 81.87% and 76.15% and 74.50% and 90.17%
- Relative level of Glc [11]: 1.6 and 2.4 and 1.4 and 0.9 (2×) and 3.6
- Glucose labeling of GlcA [12]: 10.98% and 10.19% and 12.71% and 10.94% and 11.47% and 12.23%
- Relative level of GlcA [12]: 0.9 and 0.6 and 0.566 and 0.5 and 0.3 (2×)
- Glucose labeling of GlcN (metabolite GlcN (KEGG C00329)): 0.18%
- Relative level of GlcN (metabolite GlcN (KEGG C00329), listed as V): 0.9 and 1.4 and 1.6 and 1.1 and 0.8 and 1.7
- Glucose labeling of GlcN-6P [13]: 6.56% and 5.43% and 4.48% and 7.20% and 4.32% and 4.29%
- Relative level of GlcN-6P [13]: 0.65 and 0.8 and 0.6 and 0.7 (2×) and 0.653
- Glucose labeling of GlcNAc-6P [14]: 39.94% and 9.75% and 47.59% and 56.84% and 49.88% and 50.30%
- Relative level of GlcNAc-6P [14]: 0.8 and 0.37 and 0.9 and 1.0 and 0.533 and 0.4
